Key:
CHO-K1 cells [1] = test: Anti-Gal Recruitment Assay; type: cell-based; settings: CHO-K1 cells incubated with glycolipid 1 hour at 37° C.; monoclonal anti-Gal IgG1, FITC-conjugated anti-human IgG, flow cytometry; FIGS. 1 and 2
Protocol: CHO-K1 cells were harvested from cell culture flasks, counted and resuspended in PBS to a cell density of 5×10^6 cells/ml. Each glycolipid was serially diluted in PBS across nine 1.5 ml centrifuge tubes so that the final volume in the tubes was 100 μl. To each tube, 100 μl of the CHO-K1 cell suspension was added and the tubes incubated for 1 hour at 37° C. After an hour the cells were pelleted by centrifugation at 400 g for 3 minutes and resuspended in 500 μl of PBS+0.1% BSA. This was repeated twice more to wash the cells. After the final wash the cells were resuspended in 100 μl of monoclonal anti-Gal IgG1 diluted 1:8 in PBS+0.1% BSA. The tubes were incubated on ice for 30 minutes. After 30 minutes the cells were pelleted by centrifugation at 400 g for 3 minutes and resuspended in 500 μl of PBS+0.1% BSA. This was repeated twice more to wash the cells. After the final wash the cells were resuspended in 100 μl of FITC-conjugated mouse anti-human IgG (Biolegend) and the tubes incubated on ice for 30 minutes. After 30 minutes the cells were pelleted by centrifugation at 400 g for 3 minutes and resuspended in 500 μl of PBS+0.1% BSA. This was repeated twice more to wash the cells. […] After 5 minutes incubation on ice the cells were analysed on a Cytomics FC500 flow cytometer (Beckman Coulter). […]

CHO-K1 cells [2] = test: Complement Dependent Cytotoxicity Assay; type: cell-based; settings: for Lysis of glycolipid-labelled cells by human serum complement: CHO-K1 cells labelled with glycolipid, 50% human serum, FIGS. 3 to 5; for EC50: Cricetulus griseus, CHO-K1 cells labelled with glycolipid 1 hour at 37° C., then 50% human serum complement 1 hour at 37° C., cell viability by CellTiter-Glo
Protocol: CHO-K1 cells were harvested from cell culture flasks, counted and resuspended in PBS to a cell density of 5×10^6 cells/ml. Each glycolipid was serially diluted in PBS across nine 1.5 ml centrifuge tubes so that the final volume in the tubes was 100 μl. To each tube, 100 μl of the CHO-K1 cell suspension was added and the tubes incubated for 1 hour at 37° C. After an hour the tubes were placed on ice for 5 minutes and then the cells washed 3 times with 500 μl of ice-cold PBS. The cells were resuspended in a final volume of 250 μl of ice-cold PBS and 50 μl aliquots were transferred to duplicate wells of a 96 well plate. To each well containing cells 50 μl of 100% normal or heat-inactivated (30 minutes at 56° C.) human serum complement (Innovative Research) was added so that the final concentration of human serum was 50%. The plate was incubated at 37° C. for 1 hour, after which cell viability was measured using CellTiter-Glo reagent (Promega) read on a EnVision plate reader (Perkin Elmer).

Compound | Membrane incorporation and recruitment of anti-Gal antibody (CHO-K1 cells [1]) | Lysis of glycolipid-labelled cells by human serum complement (CHO-K1 cells [2]) | EC50 (CHO-K1 cells [2]) [µM]
CCCCCCCC/C=C\CCCCCCCC(=O)OCC(COP(=O)(O)OCCNC(=O)CCCCC(=O)NCC(=O)NCC(=O)N(CC(=O)O)CC(=O)NCC(=O)NCC(=O)N(CC(=O)O)CC(=O)NCCNC(=O)CN(CC(=O)O)C(=O)CNC(=O)CNC(=O)CN(CC(=O)O)C(=O)CNC(=O)CNC(=O)CCCCC(=O)NCCCO[C@@H]1OC(CO)[C@@H](O[C@@H]2OC(CO)[C@H](O)[C@H](O[C@H]3OC(CO)[C@H](O)[C@H](O)C3O)C2O)[C@H](O)C1NC(C)=O)OC(=O)CCCCCCC/C=C\CCCCCCCC (some centres unmarked) [Example 1, Galili-CMG2-DOPE] | incorporates into the plasma membrane of CHO-K1 cells and presents the alpha-Gal epitope for recognition by anti-Gal antibodies | are lysed by human serum complement | 7.02
CCCCCCCC/C=C\CCCCCCCC(=O)OCC(COP(=O)(O)OCCNC(=O)CCCCC(=O)NCCCO[C@@H]1OC(CO)[C@@H](O[C@@H]2OC(CO)[C@H](O)C(O[C@H]3OC(CO)[C@H](O)C(O)C3NC(C)=O)C2O)C(O)C1NC(C)=O)OC(=O)CCCCCCC/C=C\CCCCCCCC (some centres unmarked) [Example 3, GalNAcα1-3Galβ1-4GlcNAc-Ad-DOPE] | – | are lysed by human serum complement | 86.8
